Test results published in PubChem BioAssay (NCI).
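Following 48 hours of exposure in 96-well plates, responses at five concentrations were used to interpolate endpoints linearly. Definition used: TGI = concentration required for complete inhibition of growth.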

How the values were obtained:
Experiment in all cases: growth of human tumour cells (NCI), 48 h
786-0 renal = tested on: 786-0 renal
A498 renal = tested on: A498 renal
A549 NSCLC = tested on: A549 NSCLC
ACHN renal = tested on: ACHN renal
BT-549 breast = tested on: BT-549 breast
CAKI-1 renal = tested on: CAKI-1 renal
CCRF-CEM leukemia = tested on: CCRF-CEM leukemia
COLO 205 colon = tested on: COLO 205 colon
DU-145 prostate = tested on: DU-145 prostate
EKVX NSCLC = tested on: EKVX NSCLC
HCC-2998 colon = tested on: HCC-2998 colon
HCT-116 colon = tested on: HCT-116 colon
HCT-15 colon = tested on: HCT-15 colon
HOP-62 NSCLC = tested on: HOP-62 NSCLC
HOP-92 NSCLC = tested on: HOP-92 NSCLC
HS 578T breast = tested on: HS 578T breast
HT29 colon = tested on: HT29 colon
IGROV1 ovarian = tested on: IGROV1 ovarian
K-562 leukemia = tested on: K-562 leukemia
KM12 colon = tested on: KM12 colon
LOX IMVI melanoma = tested on: LOX IMVI melanoma
M14 melanoma = tested on: M14 melanoma
MALME-3M melanoma = tested on: MALME-3M melanoma
MCF7 breast = tested on: MCF7 breast
MDA-MB-231 breast = tested on: MDA-MB-231 breast
MDA-MB-435 = tested on: MDA-MB-435
MOLT-4 leukemia = tested on: MOLT-4 leukemia
NCI-H226 lung = tested on: NCI-H226 lung
NCI-H23 lung = tested on: NCI-H23 lung
NCI-H460 lung = tested on: NCI-H460 lung
NCI-H522 lung = tested on: NCI-H522 lung
NCI/ADR-RES ovarian = tested on: NCI/ADR-RES ovarian
OVCAR-3 ovarian = tested on: OVCAR-3 ovarian
OVCAR-4 ovarian = tested on: OVCAR-4 ovarian
OVCAR-5 ovarian = tested on: OVCAR-5 ovarian
OVCAR-8 ovarian = tested on: OVCAR-8 ovarian
PC-3 prostate = tested on: PC-3 prostate
RPMI-8226 leukemia = tested on: RPMI-8226 leukemia
RXF 393 renal = tested on: RXF 393 renal
SF-268 CNS = tested on: SF-268 CNS
SF-295 CNS = tested on: SF-295 CNS
SF-539 CNS = tested on: SF-539 CNS
SK-MEL-2 melanoma = tested on: SK-MEL-2 melanoma
SK-MEL-28 melanoma = tested on: SK-MEL-28 melanoma
SK-MEL-5 melanoma = tested on: SK-MEL-5 melanoma
SK-OV-3 ovarian = tested on: SK-OV-3 ovarian
SN12C renal = tested on: SN12C renal
SNB-19 CNS = tested on: SNB-19 CNS
SNB-75 CNS = tested on: SNB-75 CNS
SR leukemia = tested on: SR leukemia
SW-620 colon = tested on: SW-620 colon
T-47D breast = tested on: T-47D breast
TK-10 renal = tested on: TK-10 renal
U251 CNS = tested on: U251 CNS
UACC-257 melanoma = tested on: UACC-257 melanoma
UACC-62 melanoma = tested on: UACC-62 melanoma
UO-31 renal = tested on: UO-31 renal
HL-60(TB) leukemia = tested on: HL-60(TB) leukemia

Measured: TGI

CC12CN(CC[N+](C)(C)C)CC1(C)C1CCC2O1 (stereo not given)
> 100 µM: 786-0 renal | A498 renal | A549 NSCLC | ACHN renal | BT-549 breast | CAKI-1 renal | CCRF-CEM leukemia | COLO 205 colon | DU-145 prostate | EKVX NSCLC | HCC-2998 colon | HCT-116 colon | HCT-15 colon | HOP-62 NSCLC | HOP-92 NSCLC | HS 578T breast | HT29 colon | IGROV1 ovarian | K-562 leukemia | KM12 colon | LOX IMVI melanoma | M14 melanoma | MALME-3M melanoma | MCF7 breast | MDA-MB-231 breast | MDA-MB-435 | MOLT-4 leukemia | NCI-H226 lung | NCI-H23 lung | NCI-H460 lung | NCI-H522 lung | NCI/ADR-RES ovarian | OVCAR-3 ovarian | OVCAR-4 ovarian | OVCAR-5 ovarian | OVCAR-8 ovarian | PC-3 prostate | RPMI-8226 leukemia | RXF 393 renal | SF-268 CNS | SF-295 CNS | SF-539 CNS | SK-MEL-2 melanoma | SK-MEL-28 melanoma | SK-MEL-5 melanoma | SK-OV-3 ovarian | SN12C renal | SNB-19 CNS | SNB-75 CNS | SR leukemia | SW-620 colon | T-47D breast | TK-10 renal | U251 CNS | UACC-257 melanoma | UACC-62 melanoma | UO-31 renal

CCOC(=O)C1C(=O)CC(C)(O)C(C(=O)OCC)C1c1ccc(N(C)C)cc1 (stereo not given)
> 100 µM: 786-0 renal | A498 renal | A549 NSCLC | ACHN renal | BT-549 breast | CAKI-1 renal | CCRF-CEM leukemia | COLO 205 colon | DU-145 prostate | EKVX NSCLC | HCC-2998 colon | HCT-116 colon | HCT-15 colon | HL-60(TB) leukemia | HOP-62 NSCLC | HOP-92 NSCLC | HT29 colon | IGROV1 ovarian | K-562 leukemia | KM12 colon | LOX IMVI melanoma | MALME-3M melanoma | MCF7 breast | MDA-MB-231 breast | MDA-MB-435 | MOLT-4 leukemia | NCI-H226 lung | NCI-H23 lung | NCI-H460 lung | NCI-H522 lung | NCI/ADR-RES ovarian | OVCAR-3 ovarian | OVCAR-4 ovarian | OVCAR-5 ovarian | OVCAR-8 ovarian | PC-3 prostate | RXF 393 renal | SF-268 CNS | SF-295 CNS | SK-MEL-2 melanoma | SK-MEL-28 melanoma | SK-MEL-5 melanoma | SN12C renal | SNB-19 CNS | SNB-75 CNS | SR leukemia | SW-620 colon | T-47D breast | TK-10 renal | U251 CNS | UACC-257 melanoma | UACC-62 melanoma | UO-31 renal
